From PMC12300041, “Tricyclic Isatin Derivatives as Anti-Inflammatory Compounds with High Kinase Binding Affinity” (Molecules, 2025)

Key:
Assay in all cases: KINOMEscan
Assay type in all cases: binding
[1] = target: T1, EGFR (L861Q) (Homo sapiens, UniProt P00533, L861Q)
T1 construct: purchased Eurofins DiscoverX KINOMEscan
How it was run: (§1)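 Dissociation constants derive from a 12-point, half-log compound titration (highest 33 μM). Each binding reaction ran 1 h at room temperature before qPCR quantification of kinase captured on an immobilized affinity ligand.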

[2] = target: T2, TAOK1 (Homo sapiens, UniProt Q7L7X3)
T2 construct: purchased Eurofins DiscoverX KINOMEscan
How it was run: as §1

[3] = target: T3, MEK2 (Homo sapiens, UniProt P36507)
T3 construct: purchased Eurofins DiscoverX KINOMEscan
How it was run: as §1

[4] = target: T4, PDGFRB (Homo sapiens, UniProt P09619)
T4 construct: purchased Eurofins DiscoverX KINOMEscan
T4 sequence (P09619 33-1106): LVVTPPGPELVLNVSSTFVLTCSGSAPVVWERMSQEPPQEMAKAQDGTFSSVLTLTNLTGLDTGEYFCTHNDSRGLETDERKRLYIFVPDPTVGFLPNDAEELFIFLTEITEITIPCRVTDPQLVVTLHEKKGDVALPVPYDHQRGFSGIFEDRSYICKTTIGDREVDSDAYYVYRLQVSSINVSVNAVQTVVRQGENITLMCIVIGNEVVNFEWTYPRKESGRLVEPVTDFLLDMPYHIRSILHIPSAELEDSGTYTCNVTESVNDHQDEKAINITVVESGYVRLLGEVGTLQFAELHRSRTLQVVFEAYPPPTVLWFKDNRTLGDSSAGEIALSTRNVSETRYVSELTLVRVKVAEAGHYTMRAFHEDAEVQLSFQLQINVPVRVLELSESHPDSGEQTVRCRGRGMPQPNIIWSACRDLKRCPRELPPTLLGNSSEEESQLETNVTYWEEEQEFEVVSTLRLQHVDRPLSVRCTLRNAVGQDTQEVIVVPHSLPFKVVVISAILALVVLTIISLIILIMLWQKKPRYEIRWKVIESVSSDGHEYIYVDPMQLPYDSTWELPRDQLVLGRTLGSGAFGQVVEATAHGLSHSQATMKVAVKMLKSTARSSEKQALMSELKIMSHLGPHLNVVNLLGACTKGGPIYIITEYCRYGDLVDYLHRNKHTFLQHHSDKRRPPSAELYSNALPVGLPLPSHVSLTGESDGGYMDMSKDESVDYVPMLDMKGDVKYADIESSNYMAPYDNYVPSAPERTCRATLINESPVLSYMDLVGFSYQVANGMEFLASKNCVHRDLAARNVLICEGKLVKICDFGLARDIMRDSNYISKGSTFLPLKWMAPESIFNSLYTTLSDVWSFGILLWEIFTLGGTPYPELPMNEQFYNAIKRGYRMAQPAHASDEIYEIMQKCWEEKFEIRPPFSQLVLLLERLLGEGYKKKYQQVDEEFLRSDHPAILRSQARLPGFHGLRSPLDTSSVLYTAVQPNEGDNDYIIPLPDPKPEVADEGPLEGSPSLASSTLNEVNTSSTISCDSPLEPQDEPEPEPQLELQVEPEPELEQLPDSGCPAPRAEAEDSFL
How it was run: as §1

[5] = target: T5, CSF1R (Homo sapiens, UniProt P07333)
T5 construct: purchased Eurofins DiscoverX KINOMEscan
How it was run: as §1

[6] = target: T6, RET (V804L) (Homo sapiens, UniProt P07949, V804L)
T6 construct: purchased Eurofins DiscoverX KINOMEscan
How it was run: as §1

[7] = target: T7, TNIK (Homo sapiens, UniProt Q9UKE5)
T7 construct: purchased Eurofins DiscoverX KINOMEscan
How it was run: as §1

[8] = target: T8, CASK (Homo sapiens, UniProt O14936)
T8 construct: purchased Eurofins DiscoverX KINOMEscan
How it was run: as §1

[9] = target: T9, ITK (Homo sapiens, UniProt Q08881)
T9 construct: purchased Eurofins DiscoverX KINOMEscan
How it was run: as §1

[10] = target: T10, FES (Homo sapiens, UniProt P07332)
T10 construct: purchased Eurofins DiscoverX KINOMEscan
How it was run: as §1

[11] = target: T11, TRKB (Homo sapiens, UniProt Q16620)
T11 construct: purchased Eurofins DiscoverX KINOMEscan
T11 sequence (Q16620 32-822): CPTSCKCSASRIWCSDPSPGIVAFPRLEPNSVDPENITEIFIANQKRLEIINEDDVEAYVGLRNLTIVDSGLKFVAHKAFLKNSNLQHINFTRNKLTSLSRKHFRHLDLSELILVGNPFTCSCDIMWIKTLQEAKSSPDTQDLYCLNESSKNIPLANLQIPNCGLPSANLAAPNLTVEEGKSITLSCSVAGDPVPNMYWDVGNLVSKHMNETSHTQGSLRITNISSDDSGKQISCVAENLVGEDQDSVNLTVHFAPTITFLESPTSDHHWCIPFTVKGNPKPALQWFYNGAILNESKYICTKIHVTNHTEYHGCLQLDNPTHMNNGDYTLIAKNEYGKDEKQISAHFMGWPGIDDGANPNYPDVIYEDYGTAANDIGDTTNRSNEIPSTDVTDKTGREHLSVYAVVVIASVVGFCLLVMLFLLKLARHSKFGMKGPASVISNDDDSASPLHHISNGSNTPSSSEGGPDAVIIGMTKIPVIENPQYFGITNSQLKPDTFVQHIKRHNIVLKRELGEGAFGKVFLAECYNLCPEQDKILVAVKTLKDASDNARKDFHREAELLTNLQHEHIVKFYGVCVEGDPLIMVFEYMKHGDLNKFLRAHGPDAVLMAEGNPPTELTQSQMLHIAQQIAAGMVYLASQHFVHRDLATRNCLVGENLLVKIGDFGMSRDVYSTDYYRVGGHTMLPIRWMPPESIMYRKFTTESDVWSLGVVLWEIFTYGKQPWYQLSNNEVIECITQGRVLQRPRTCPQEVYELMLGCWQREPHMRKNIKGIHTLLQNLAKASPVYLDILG
How it was run: as §1

[12] = target: T12, TYK2 (JH1 domain-cat.) (Homo sapiens, UniProt P29597)
T12 construct: TYK2 (JH1 domain-cat.); purchased Eurofins DiscoverX KINOMEscan
T12 sequence (P29597 888-1187 limits assumed): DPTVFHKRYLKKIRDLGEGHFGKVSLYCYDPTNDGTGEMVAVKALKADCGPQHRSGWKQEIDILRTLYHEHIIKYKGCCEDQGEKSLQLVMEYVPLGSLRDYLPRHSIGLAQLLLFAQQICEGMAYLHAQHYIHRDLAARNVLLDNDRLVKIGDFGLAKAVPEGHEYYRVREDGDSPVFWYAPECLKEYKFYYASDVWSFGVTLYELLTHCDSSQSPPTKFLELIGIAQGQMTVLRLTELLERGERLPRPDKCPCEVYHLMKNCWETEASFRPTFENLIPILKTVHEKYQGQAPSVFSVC
How it was run: as §1

[13] = target: T13, OSR1 (Homo sapiens, UniProt O95747)
T13 construct: purchased Eurofins DiscoverX KINOMEscan
How it was run: as §1

[14] = target: T14, PIK3CA (H1047Y) (Homo sapiens, UniProt P42336, H1047Y)
T14 construct: purchased Eurofins DiscoverX KINOMEscan
How it was run: as §1

[15] = target: T15, EGFR (S752-I759 del) (Homo sapiens, UniProt P00533, DEL752-759)
T15 construct: purchased Eurofins DiscoverX KINOMEscan
How it was run: as §1

[16] = target: T16, PAK3 (Homo sapiens, UniProt O75914)
T16 construct: purchased Eurofins DiscoverX KINOMEscan
How it was run: as §1

[17] = target: T17, MKNK2 (Homo sapiens, UniProt Q9HBH9)
T17 construct: purchased Eurofins DiscoverX KINOMEscan
T17 sequence (Q9HBH9 whole entry): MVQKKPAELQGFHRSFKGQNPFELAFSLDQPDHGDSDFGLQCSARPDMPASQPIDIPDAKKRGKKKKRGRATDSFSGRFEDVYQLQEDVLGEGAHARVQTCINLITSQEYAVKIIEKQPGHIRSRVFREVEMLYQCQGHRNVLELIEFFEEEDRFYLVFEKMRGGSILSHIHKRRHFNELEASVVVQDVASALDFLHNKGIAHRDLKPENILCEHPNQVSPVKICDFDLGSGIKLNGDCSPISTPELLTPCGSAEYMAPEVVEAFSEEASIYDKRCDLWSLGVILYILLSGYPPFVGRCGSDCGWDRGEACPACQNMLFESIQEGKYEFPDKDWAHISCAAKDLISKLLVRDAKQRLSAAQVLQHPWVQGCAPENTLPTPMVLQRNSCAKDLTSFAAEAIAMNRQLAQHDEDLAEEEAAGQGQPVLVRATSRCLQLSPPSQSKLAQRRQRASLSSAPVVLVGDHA
How it was run: as §1

[18] = target: T18, PRKG1 (Homo sapiens, UniProt Q13976)
T18 construct: purchased Eurofins DiscoverX KINOMEscan
How it was run: as §1

[19] = target: T19, FLT3 (Homo sapiens, UniProt P36888)
T19 construct: purchased Eurofins DiscoverX KINOMEscan
How it was run: as §1

[20] = target: T20, BRSK2 (Homo sapiens, UniProt Q8IWQ3)
T20 construct: purchased Eurofins DiscoverX KINOMEscan
How it was run: as §1

[21] = target: T21, TNK2 (Homo sapiens, UniProt Q07912)
T21 construct: purchased Eurofins DiscoverX KINOMEscan
How it was run: as §1

[22] = target: T22, MYLK (Homo sapiens, UniProt Q15746)
T22 construct: purchased Eurofins DiscoverX KINOMEscan
How it was run: as §1

[23] = target: T23, MEK6 (Homo sapiens, UniProt P52564)
T23 construct: purchased Eurofins DiscoverX KINOMEscan
How it was run: as §1

[24] = target: T24, LOK (Homo sapiens, UniProt O94804)
T24 construct: purchased Eurofins DiscoverX KINOMEscan
How it was run: as §1

[25] = target: T25, KIT (V559D, V654A) (Homo sapiens, UniProt P10721, V559D/V654A)
T25 construct: purchased Eurofins DiscoverX KINOMEscan
How it was run: as §1

[26] = target: T26, RIPK4 (Homo sapiens, UniProt P57078)
T26 construct: purchased Eurofins DiscoverX KINOMEscan
How it was run: as §1

[27] = target: T27, GAK (Homo sapiens, UniProt O14976)
T27 construct: purchased Eurofins DiscoverX KINOMEscan
How it was run: as §1

[28] = target: T28, MAP3K1 (Homo sapiens, UniProt Q13233)
T28 construct: purchased Eurofins DiscoverX KINOMEscan
T28 sequence (Q13233 whole entry): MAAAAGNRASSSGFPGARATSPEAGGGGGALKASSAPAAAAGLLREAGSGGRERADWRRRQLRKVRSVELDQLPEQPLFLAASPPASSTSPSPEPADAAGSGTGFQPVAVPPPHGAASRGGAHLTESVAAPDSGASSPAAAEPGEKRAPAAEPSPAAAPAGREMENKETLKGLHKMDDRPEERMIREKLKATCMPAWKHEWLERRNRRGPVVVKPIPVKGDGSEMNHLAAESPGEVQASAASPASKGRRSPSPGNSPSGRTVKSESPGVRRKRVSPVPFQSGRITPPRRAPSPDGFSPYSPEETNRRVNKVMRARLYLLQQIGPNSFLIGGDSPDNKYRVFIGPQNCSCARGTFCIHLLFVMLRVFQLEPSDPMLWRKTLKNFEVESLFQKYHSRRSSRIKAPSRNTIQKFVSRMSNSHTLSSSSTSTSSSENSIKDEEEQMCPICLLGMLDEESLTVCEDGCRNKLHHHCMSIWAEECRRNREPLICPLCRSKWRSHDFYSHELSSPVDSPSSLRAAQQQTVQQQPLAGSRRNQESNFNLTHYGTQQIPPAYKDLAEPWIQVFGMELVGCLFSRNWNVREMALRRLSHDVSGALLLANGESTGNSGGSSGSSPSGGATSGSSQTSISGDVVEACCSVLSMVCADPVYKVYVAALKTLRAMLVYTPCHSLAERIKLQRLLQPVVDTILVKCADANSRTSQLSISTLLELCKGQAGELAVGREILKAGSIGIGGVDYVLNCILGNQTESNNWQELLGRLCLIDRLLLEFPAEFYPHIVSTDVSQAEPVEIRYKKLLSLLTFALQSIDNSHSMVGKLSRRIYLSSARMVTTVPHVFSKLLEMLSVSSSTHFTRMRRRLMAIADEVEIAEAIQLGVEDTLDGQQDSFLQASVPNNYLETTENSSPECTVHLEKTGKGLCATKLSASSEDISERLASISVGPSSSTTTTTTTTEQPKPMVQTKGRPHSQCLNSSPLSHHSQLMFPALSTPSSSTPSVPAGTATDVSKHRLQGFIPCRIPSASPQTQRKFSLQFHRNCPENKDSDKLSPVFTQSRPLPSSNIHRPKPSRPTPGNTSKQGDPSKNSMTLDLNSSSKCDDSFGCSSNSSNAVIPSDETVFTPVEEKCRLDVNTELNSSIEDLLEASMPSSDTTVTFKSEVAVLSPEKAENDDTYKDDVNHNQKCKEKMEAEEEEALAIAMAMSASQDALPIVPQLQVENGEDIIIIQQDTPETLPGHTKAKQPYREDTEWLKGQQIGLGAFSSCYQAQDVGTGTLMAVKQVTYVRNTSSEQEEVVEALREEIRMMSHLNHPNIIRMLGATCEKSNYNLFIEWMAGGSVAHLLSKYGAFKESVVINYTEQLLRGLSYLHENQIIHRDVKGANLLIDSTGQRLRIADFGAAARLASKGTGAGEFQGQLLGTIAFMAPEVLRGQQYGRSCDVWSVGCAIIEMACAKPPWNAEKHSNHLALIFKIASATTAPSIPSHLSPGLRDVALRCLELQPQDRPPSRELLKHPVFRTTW
How it was run: as §1

[29] = target: T29, EGFR (G719C) (Homo sapiens, UniProt P00533, G719C)
T29 construct: purchased Eurofins DiscoverX KINOMEscan
How it was run: as §1

[30] = target: T30, YES (Homo sapiens, UniProt P07947)
T30 construct: purchased Eurofins DiscoverX KINOMEscan
How it was run: as §1

[31] = target: T31, RIOK3 (Homo sapiens, UniProt O14730)
T31 construct: purchased Eurofins DiscoverX KINOMEscan
T31 sequence (O14730 whole entry): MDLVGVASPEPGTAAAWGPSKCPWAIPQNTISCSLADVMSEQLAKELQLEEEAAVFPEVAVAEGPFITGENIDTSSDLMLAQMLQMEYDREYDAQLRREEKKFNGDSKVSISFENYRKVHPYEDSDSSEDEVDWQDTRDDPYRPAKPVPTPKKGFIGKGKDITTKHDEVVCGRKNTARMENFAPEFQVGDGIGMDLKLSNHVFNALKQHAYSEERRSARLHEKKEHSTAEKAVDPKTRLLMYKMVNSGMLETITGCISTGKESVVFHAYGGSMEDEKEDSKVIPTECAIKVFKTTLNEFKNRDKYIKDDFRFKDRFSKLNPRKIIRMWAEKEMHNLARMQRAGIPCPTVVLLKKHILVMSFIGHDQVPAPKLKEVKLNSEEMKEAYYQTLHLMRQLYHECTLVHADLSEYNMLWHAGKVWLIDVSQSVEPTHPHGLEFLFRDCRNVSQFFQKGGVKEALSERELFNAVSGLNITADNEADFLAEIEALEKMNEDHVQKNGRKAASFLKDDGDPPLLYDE
How it was run: as §1

[32] = target: T32, CIT (Homo sapiens, UniProt O14578)
T32 construct: purchased Eurofins DiscoverX KINOMEscan
How it was run: as §1

[33] = target: T33, AURKB (Homo sapiens, UniProt Q96GD4)
T33 construct: purchased Eurofins DiscoverX KINOMEscan
T33 sequence (Q96GD4 whole entry): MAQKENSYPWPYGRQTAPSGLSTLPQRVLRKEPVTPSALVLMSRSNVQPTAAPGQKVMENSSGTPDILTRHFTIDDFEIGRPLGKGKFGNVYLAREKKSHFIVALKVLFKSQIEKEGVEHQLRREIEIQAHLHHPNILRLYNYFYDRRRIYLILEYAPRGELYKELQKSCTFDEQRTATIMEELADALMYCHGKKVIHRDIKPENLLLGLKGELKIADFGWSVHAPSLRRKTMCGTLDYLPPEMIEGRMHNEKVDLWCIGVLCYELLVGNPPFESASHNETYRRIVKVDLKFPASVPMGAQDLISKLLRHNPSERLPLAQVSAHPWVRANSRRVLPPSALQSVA
How it was run: as §1

[34] = target: T34, FAK (Homo sapiens, UniProt Q05397)
T34 construct: purchased Eurofins DiscoverX KINOMEscan
How it was run: as §1

[35] = target: T35, CLK2 (Homo sapiens, UniProt P49760)
T35 construct: purchased Eurofins DiscoverX KINOMEscan
How it was run: as §1

[36] = target: T36, NLK (Homo sapiens, UniProt Q9UBE8)
T36 construct: purchased Eurofins DiscoverX KINOMEscan
How it was run: as §1

[37] = target: T37, TLK2 (Homo sapiens, UniProt Q86UE8)
T37 construct: purchased Eurofins DiscoverX KINOMEscan
How it was run: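 A 12-point half-log dilution series topping at 33 μM defined each Kd. The kinase fraction escaping compound binding over 1 h at room temperature was trapped by an immobilized affinity ligand and measured by quantitative PCR.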

[38] = target: T38, FLT3 (D835H) (Homo sapiens, UniProt P36888, D835H)
T38 construct: purchased Eurofins DiscoverX KINOMEscan
How it was run: as §1

[39] = target: T39, INSR (Homo sapiens, UniProt P06213)
T39 construct: purchased Eurofins DiscoverX KINOMEscan
How it was run: as §1

## O=C1Nc2c(cc([N+](=O)[O-])c3c2CCCC3)C1=NO [Compound 5d, 3-(Hydroxyimino)-5-nitro-1,3,6,7,8,9-hexahydro-2H-benzo[g]indol-2-one]
[1]
  inhibition at 10 µM: 12%
[2]
  inhibition at 10 µM: 62%
[3]
  inhibition at 10 µM: 87%
[4]
  inhibition at 10 µM: 0%
[5]
  inhibition at 10 µM: 0%
[6]
  inhibition at 10 µM: 2%
[7]
  inhibition at 10 µM: 65%
[8]
  inhibition at 10 µM: 2%
[9]
  inhibition at 10 µM: 0%
[10]
  inhibition at 10 µM: 0%
[11]
  inhibition at 10 µM: 34%
[12]
  inhibition at 10 µM: 90%
[13]
  inhibition at 10 µM: 25%
[14]
  inhibition at 10 µM: 36%
[15]
  inhibition at 10 µM: 16%
[16]
  inhibition at 10 µM: 67%
[17]
  inhibition at 10 µM: 93.2%
[18]
  inhibition at 10 µM: 11%
[19]
  inhibition at 10 µM: 12%
[20]
  inhibition at 10 µM: 31%
[21]
  inhibition at 10 µM: 2%
[22]
  inhibition at 10 µM: 93.9%
[23]
  inhibition at 10 µM: 3%
[24]
  inhibition at 10 µM: 73%
[25]
  inhibition at 10 µM: 0%
[26]
  inhibition at 10 µM: 55%
[27]
  inhibition at 10 µM: 49%
[28]
  inhibition at 10 µM: 6%
[29]
  inhibition at 10 µM: 24%
[30]
  inhibition at 10 µM: 26%
[31]
  inhibition at 10 µM: 19%
[32]
  inhibition at 10 µM: 92.8%
[33]
  inhibition at 10 µM: 90.7%
[34]
  inhibition at 10 µM: 19%
[35]
  inhibition at 10 µM: 95.9%
[36]
  inhibition at 10 µM: 11%
[37]
  inhibition at 10 µM: 0%
[38]
  inhibition at 10 µM: 35%
[39]
  inhibition at 10 µM: 1%
